# Reference: publication PMC9276671, “A first-in-human Phase I dose-escalation trial of the novel therapeutic peptide, ALM201, demonstrates a favourable safety profile in unselected patients with ovarian cancer and other advanced solid tumours” (British Journal of Cancer, 2022)
# No end group written: not given here.
# Experiment: Plasma pharmacokinetics of ALM201 in Phase I patients (validated LC-MS/MS, Phoenix WinNonlin)
# Conditions: human, plasma, sc; for level at 3 h: day 1 cycle 1, 3 h after dosing; for Tmax: median; for Tmax / AUC(0-t) / Cmax: plasma LC-MS/MS; for AUC(0-t): AUC0-t; for AUC(0-t) / Cmax: Gmean (CV); for level at 0.25 h: day 1 cycle 1, 0.25 h after dosing; for level at 0.75 h: day 1 cycle 1, 0.75 h after dosing; for level at 4 h: day 1 cycle 1, 4 h after dosing
# [1] = 40 mg, 40 mg SC, day 1 cycle 1, n = 1
# [2] = 40 mg, 40 mg SC, day 3 cycle 1, n = 1
# [3] = 40 mg, 40 mg SC, day 18 cycle 1, n = 1
# [4] = 40 mg, 40 mg SC, day 18 cycle 2, n = 1
# [5] = 40 mg, Plasma concentration, geometric mean (CV%), 40 mg SC, n = 1, LC-MS/MS
# [6] = 80 mg, 80 mg SC, day 1 cycle 1, n = 3
# [7] = 80 mg, 80 mg SC, day 3 cycle 1, n = 3
# [8] = 80 mg, 80 mg SC, day 18 cycle 1, n = 2, CV not calculated
# [9] = 80 mg, 80 mg SC, day 18 cycle 2, n = 1
# [10] = 80 mg, Plasma concentration, geometric mean (CV%), 80 mg SC, n = 3, LC-MS/MS
sequence,measurement,setting,value
IRQQPRDPPTETLELEVSPDPAS [ALM201],level at 1.5 h,"20 mg, Plasma concentration, geometric mean (CV%), 20 mg SC, day 1 cycle 1, 1.5 h after dosing, n = 1, LC-MS/MS",0.542 µg/mL
same,level at 2 h,"20 mg, Plasma concentration, geometric mean (CV%), 20 mg SC, day 1 cycle 1, 2 h after dosing, n = 1, LC-MS/MS",0.417 µg/mL
same,level at 3 h,"20 mg, Plasma concentration, geometric mean (CV%), 20 mg SC, n = 1, LC-MS/MS",0.224 µg/mL
same,level at 0.5 h,"20 mg, Plasma concentration, geometric mean (CV%), 20 mg SC, day 3 cycle 1, 0.5 h after dosing, n = 1, LC-MS/MS",0.21 µg/mL
same,level at 1 h,"20 mg, Plasma concentration, geometric mean (CV%), 20 mg SC, day 3 cycle 1, 1 h after dosing, n = 1, LC-MS/MS",0.614 µg/mL
same,level at 1.5 h,"20 mg, Plasma concentration, geometric mean (CV%), 20 mg SC, day 3 cycle 1, 1.5 h after dosing, n = 1, LC-MS/MS",0.532 µg/mL
same,level at 2 h,"20 mg, Plasma concentration, geometric mean (CV%), 20 mg SC, day 3 cycle 1, 2 h after dosing, n = 1, LC-MS/MS",0.377 µg/mL
same,level at 3.5 h,"20 mg, Plasma concentration, geometric mean (CV%), 20 mg SC, day 3 cycle 1, 3.5 h after dosing, n = 1, LC-MS/MS",0.134 µg/mL
same,level at 0.5 h,"20 mg, Plasma concentration, geometric mean (CV%), 20 mg SC, day 18 cycle 1, 0.5 h after dosing, n = 1, LC-MS/MS",0.194 µg/mL
same,level at 1 h,"20 mg, Plasma concentration, geometric mean (CV%), 20 mg SC, day 18 cycle 1, 1 h after dosing, n = 1, LC-MS/MS",0.319 µg/mL
same,level at 1.5 h,"20 mg, Plasma concentration, geometric mean (CV%), 20 mg SC, day 18 cycle 1, 1.5 h after dosing, n = 1, LC-MS/MS",0.314 µg/mL
same,level at 2 h,"20 mg, Plasma concentration, geometric mean (CV%), 20 mg SC, day 18 cycle 1, 2 h after dosing, n = 1, LC-MS/MS",0.224 µg/mL
same,level at 3.5 h,"20 mg, Plasma concentration, geometric mean (CV%), 20 mg SC, day 18 cycle 1, 3.5 h after dosing, n = 1, LC-MS/MS",0.113 µg/mL
same,level at 0.5 h,"20 mg, Plasma concentration, geometric mean (CV%), 20 mg SC, day 18 cycle 2, 0.5 h after dosing, n = 1, LC-MS/MS",0.279 µg/mL
same,level at 1 h,"20 mg, Plasma concentration, geometric mean (CV%), 20 mg SC, day 18 cycle 2, 1 h after dosing, n = 1, LC-MS/MS",0.394 µg/mL
same,level at 1.5 h,"20 mg, Plasma concentration, geometric mean (CV%), 20 mg SC, day 18 cycle 2, 1.5 h after dosing, n = 1, LC-MS/MS",0.352 µg/mL
same,level at 2 h,"20 mg, Plasma concentration, geometric mean (CV%), 20 mg SC, day 18 cycle 2, 2 h after dosing, n = 1, LC-MS/MS",0.386 µg/mL
same,level at 3.5 h,"20 mg, Plasma concentration, geometric mean (CV%), 20 mg SC, day 18 cycle 2, 3.5 h after dosing, n = 1, LC-MS/MS",0.162 µg/mL
same,Tmax,"20 mg, 20 mg SC, day 1 cycle 1, n = 1",1.5 h
same,Tmax,"20 mg, 20 mg SC, day 3 cycle 1, n = 1",1 h
same,Tmax,"20 mg, 20 mg SC, day 18 cycle 1, n = 1",1.02 h
same,AUC(0-t),[1],1.92 µg·h/mL
same,AUC(0-t),[2],0.898 µg·h/mL
same,AUC(0-t),[3],1.84 µg·h/mL
same,AUC(0-t),[4],1.95 µg·h/mL
same,Cmax,[1],0.592 µg/mL
same,Cmax,[2],0.759 µg/mL
same,Cmax,[3],0.405 µg/mL
same,level at 0.25 h,[5],0.316 µg/mL
same,level at 0.75 h,[5],0.556 µg/mL
same,level at 1.5 h,"40 mg, Plasma concentration, geometric mean (CV%), 40 mg SC, day 1 cycle 1, 1.5 h after dosing, n = 1, LC-MS/MS",0.592 µg/mL
same,level at 2 h,"40 mg, Plasma concentration, geometric mean (CV%), 40 mg SC, day 1 cycle 1, 2 h after dosing, n = 1, LC-MS/MS",0.54 µg/mL
same,level at 3 h,[5],0.368 µg/mL
same,level at 4 h,[5],0.223 µg/mL
same,level at 5 h,"40 mg, Plasma concentration, geometric mean (CV%), 40 mg SC, day 1 cycle 1, 5 h after dosing, n = 1, LC-MS/MS",0.158 µg/mL
same,level at 0.5 h,"40 mg, Plasma concentration, geometric mean (CV%), 40 mg SC, day 3 cycle 1, 0.5 h after dosing, n = 1, LC-MS/MS",0.264 µg/mL
same,level at 1 h,"40 mg, Plasma concentration, geometric mean (CV%), 40 mg SC, day 3 cycle 1, 1 h after dosing, n = 1, LC-MS/MS",0.444 µg/mL
same,level at 1.5 h,"40 mg, Plasma concentration, geometric mean (CV%), 40 mg SC, day 3 cycle 1, 1.5 h after dosing, n = 1, LC-MS/MS",0.759 µg/mL
same,level at 2 h,"40 mg, Plasma concentration, geometric mean (CV%), 40 mg SC, day 3 cycle 1, 2 h after dosing, n = 1, LC-MS/MS",0.656 µg/mL
same,level at 0.5 h,"40 mg, Plasma concentration, geometric mean (CV%), 40 mg SC, day 18 cycle 1, 0.5 h after dosing, n = 1, LC-MS/MS",0.348 µg/mL
same,level at 1 h,"40 mg, Plasma concentration, geometric mean (CV%), 40 mg SC, day 18 cycle 1, 1 h after dosing, n = 1, LC-MS/MS",0.405 µg/mL
same,level at 1.5 h,"40 mg, Plasma concentration, geometric mean (CV%), 40 mg SC, day 18 cycle 1, 1.5 h after dosing, n = 1, LC-MS/MS",0.397 µg/mL
same,level at 2 h,"40 mg, Plasma concentration, geometric mean (CV%), 40 mg SC, day 18 cycle 1, 2 h after dosing, n = 1, LC-MS/MS",0.368 µg/mL
same,level at 3.5 h,"40 mg, Plasma concentration, geometric mean (CV%), 40 mg SC, day 18 cycle 1, 3.5 h after dosing, n = 1, LC-MS/MS",0.377 µg/mL
same,level at 5 h,"40 mg, Plasma concentration, geometric mean (CV%), 40 mg SC, day 18 cycle 1, 5 h after dosing, n = 1, LC-MS/MS",0.113 µg/mL
same,level at 0.5 h,"40 mg, Plasma concentration, geometric mean (CV%), 40 mg SC, day 18 cycle 2, 0.5 h after dosing, n = 1, LC-MS/MS",0.384 µg/mL
same,level at 1 h,"40 mg, Plasma concentration, geometric mean (CV%), 40 mg SC, day 18 cycle 2, 1 h after dosing, n = 1, LC-MS/MS",0.583 µg/mL
same,level at 1.5 h,"40 mg, Plasma concentration, geometric mean (CV%), 40 mg SC, day 18 cycle 2, 1.5 h after dosing, n = 1, LC-MS/MS",0.565 µg/mL
same,level at 2 h,"40 mg, Plasma concentration, geometric mean (CV%), 40 mg SC, day 18 cycle 2, 2 h after dosing, n = 1, LC-MS/MS",0.571 µg/mL
same,level at 3.5 h,"40 mg, Plasma concentration, geometric mean (CV%), 40 mg SC, day 18 cycle 2, 3.5 h after dosing, n = 1, LC-MS/MS",0.347 µg/mL
same,Tmax,[1],1.63 h
same,Tmax,[2],1.5 h
same,Tmax,[3],1 h
same,Tmax,[4],1.03 h
same,AUC(0-t),[6],3.38 µg·h/mL
same,AUC(0-t),[7],2.97 µg·h/mL
same,AUC(0-t),[8],3.5 µg·h/mL
same,AUC(0-t),[9],3.23 µg·h/mL
same,Cmax,[6],0.835 µg/mL
same,Cmax,[7],0.861 µg/mL
same,Cmax,[8],1.09 µg/mL
same,Cmax,[9],0.849 µg/mL
same,level at 0.25 h,[10],0.292 µg/mL
same,level at 0.75 h,[10],0.7 µg/mL
same,level at 1.5 h,"80 mg, Plasma concentration, geometric mean (CV%), 80 mg SC, day 1 cycle 1, 1.5 h after dosing, n = 3, LC-MS/MS",0.8 µg/mL
same,level at 2 h,"80 mg, Plasma concentration, geometric mean (CV%), 80 mg SC, day 1 cycle 1, 2 h after dosing, n = 3, LC-MS/MS",0.727 µg/mL
same,level at 3 h,[10],0.689 µg/mL
same,level at 4 h,[10],0.556 µg/mL
same,level at 5 h,"80 mg, Plasma concentration, geometric mean (CV%), 80 mg SC, day 1 cycle 1, 5 h after dosing, n = 3, LC-MS/MS",0.359 µg/mL
same,level at 6 h,"80 mg, Plasma concentration, geometric mean (CV%), 80 mg SC, day 1 cycle 1, 6 h after dosing, n = 3, LC-MS/MS",0.248 µg/mL
same,level at 0.5 h,"80 mg, Plasma concentration, geometric mean (CV%), 80 mg SC, day 3 cycle 1, 0.5 h after dosing, n = 3, LC-MS/MS",0.578 µg/mL
same,level at 1 h,"80 mg, Plasma concentration, geometric mean (CV%), 80 mg SC, day 3 cycle 1, 1 h after dosing, n = 3, LC-MS/MS",0.684 µg/mL
same,level at 1.5 h,"80 mg, Plasma concentration, geometric mean (CV%), 80 mg SC, day 3 cycle 1, 1.5 h after dosing, n = 3, LC-MS/MS",0.827 µg/mL
same,level at 2 h,"80 mg, Plasma concentration, geometric mean (CV%), 80 mg SC, day 3 cycle 1, 2 h after dosing, n = 3, LC-MS/MS",0.826 µg/mL
same,level at 3.5 h,"80 mg, Plasma concentration, geometric mean (CV%), 80 mg SC, day 3 cycle 1, 3.5 h after dosing, n = 3, LC-MS/MS",0.524 µg/mL
same,level at 5 h,"80 mg, Plasma concentration, geometric mean (CV%), 80 mg SC, day 3 cycle 1, 5 h after dosing, n = 3, LC-MS/MS",0.325 µg/mL
same,level at 0.5 h,"80 mg, Plasma concentration, geometric mean (CV%), 80 mg SC, day 18 cycle 1, 0.5 h after dosing, n = 2, LC-MS/MS",0.769 µg/mL
same,level at 1 h,"80 mg, Plasma concentration, geometric mean (CV%), 80 mg SC, day 18 cycle 1, 1 h after dosing, n = 2, LC-MS/MS",0.946 µg/mL
same,level at 1.5 h,"80 mg, Plasma concentration, geometric mean (CV%), 80 mg SC, day 18 cycle 1, 1.5 h after dosing, n = 2, LC-MS/MS",0.884 µg/mL
same,level at 2 h,"80 mg, Plasma concentration, geometric mean (CV%), 80 mg SC, day 18 cycle 1, 2 h after dosing, n = 2, LC-MS/MS",1.06 µg/mL
same,level at 3.5 h,"80 mg, Plasma concentration, geometric mean (CV%), 80 mg SC, day 18 cycle 1, 3.5 h after dosing, n = 2, LC-MS/MS",0.545 µg/mL
same,level at 5 h,"80 mg, Plasma concentration, geometric mean (CV%), 80 mg SC, day 18 cycle 1, 5 h after dosing, n = 2, LC-MS/MS",0.407 µg/mL
same,level at 0.5 h,"80 mg, Plasma concentration, geometric mean (CV%), 80 mg SC, day 18 cycle 2, 0.5 h after dosing, n = 1, LC-MS/MS",0.394 µg/mL
same,level at 1 h,"80 mg, Plasma concentration, geometric mean (CV%), 80 mg SC, day 18 cycle 2, 1 h after dosing, n = 1, LC-MS/MS",0.808 µg/mL
same,level at 1.5 h,"80 mg, Plasma concentration, geometric mean (CV%), 80 mg SC, day 18 cycle 2, 1.5 h after dosing, n = 1, LC-MS/MS",0.659 µg/mL
same,level at 2 h,"80 mg, Plasma concentration, geometric mean (CV%), 80 mg SC, day 18 cycle 2, 2 h after dosing, n = 1, LC-MS/MS",0.639 µg/mL
same,level at 3.5 h,"80 mg, Plasma concentration, geometric mean (CV%), 80 mg SC, day 18 cycle 2, 3.5 h after dosing, n = 1, LC-MS/MS",0.849 µg/mL
same,Tmax,[6],1.53 h
same,Tmax,"80 mg, 80 mg SC, day 18 cycle 1, n = 2",1.23 h
